From US20260007679A1, “METHODS OF TREATING CANCER USING 3-(4-((4-(MORPHOLINOMETHYL)BENZYL)OXY)-1-OXOISOINDOLIN-2-YL)PIPERIDINE-2,6-DIONE” (Celgene Corporation, priority 2012, published 2026)
Where “and” joins values, the source holds several entries; their conditions need not be identical. Identical values can stand only once. Like-named read-outs stand apart in the source and are kept apart here. Values belong to the compound of their own block, whether it stands above or below them.

How the values were obtained:
[1] = test system: purified primary human T cells stimulated using immobilized anti-CD3 antibody; assay: T-cell costimulation, IL-2 production; assay type: cell-based
Procedure: (§1) CRBN ubiquitination was measured in HEK293T cells, which were transfected with an amino-terminal His-biotin-tagged CRBN construct, then preincubated with compounds for one hour followed by treatment with the MG132 proteasome inhibitor (to arrest degradation of ubiquitinated proteins). Cells were lysed and processed to measure CRBN ubiquitination by SDS-PAGE and immunoblot analysis using an anti-ubiquitin antibody. Cell proliferation studies were conducted in lenalidomide-sensitive and refractory multiple myeloma cells. […] T-cell costimulation was measured in purified primary human T cells stimulated using immobilized anti-CD3 antibody in cell culture for 2 days, and cytokine secretion was measured by ELISA.

[2] = test system: DoHH2 cell line; assay: Cell cycle analysis; assay type: cell-based
Procedure: (§2) Cell Cycle Analysis: Cells were treated with DMSO or an amount of a compound provided herein for 48 hours. Propidium iodide staining for cell cycle was performed using CycleTEST PLUS (Becton Dickinson) according to manufacturer's protocol. Following staining, cells were analyzed by a FACSCalibur flow cytometer using ModFit LT software (Becton Dickinson).

[3] = test system: WSU-DLCL2 cell line; assay: Cell cycle analysis; assay type: cell-based
Procedure: as §2

[4] = test system: Rec-1 MCL cells; assay: 3 day 3H-thymidine incorporation assay; assay type: cell-based
[5] = test system: H929 DMSO-treated subclone; assay: Proliferation and viability by 7-AAD staining; assay type: cell-based; settings: Homo sapiens, NCI-H929, 120 h, 5 days, read-out: IC50 for inhibition of proliferation
Procedure: as §1

[6] = test system: human umbilical artery; assay: Human umbilical artery assay; assay type: cell-based
Procedure: Compounds I, I-R, and I-S were tested in various angiogenesis inhibition assays.

[7] = Pharmacokinetics in rat; assay type: in vivo; settings: SD Rat, 67% S-enantiomer, 33% R-enantiomer
[8] = Pharmacokinetics in monkey; assay type: in vivo; settings: >99.5% S-enantiomer, <0.5% R-enantiomer
[9] = test system: normal donor peripheral blood mononuclear cells; assay: Immunoglobulin M and G production; assay type: cell-based; settings: Homo sapiens, PBMC
Procedure: Immunoglobulin M and G (“IgG and IgM”) production was measured from normal donor peripheral blood mononuclear cells by culturing in the presence of the B cell differentiation factors recombinant human IL-2 (20U/mL), IL-10 (50 ng/mL), IL-15 (10 ng/mL), His-tagged CD40 Ligand (50 ng/mL), polyHistidine mouse IgG1 antibody (5 μg/mL), and ODN 2006-Human TLR9 ligand (10 μg/mL) for 4 days, followed by IL-2, IL-10, IL-15, and IL-6 (50 ng/mL) for an additional 3 days. IgM and IgG were measured by ELISA.

[10] = test system: NK cell mediated ADCC against Rituximab coated lymphoma cells; assay: NK cell mediated ADCC assay (LDH release); assay type: cell-based, human
Procedure: NK cells from healthy donors were isolated from buffy coat blood by negative selection using the RosetteSep NK cell enrichment cocktail (Stem Cell Technologies, Vancouver, BC) prior to Ficoll-Hypaque (Fisher Scientific Co LLC, PA) density gradient centrifugation following the manufacturers' instructions. CD56+NK cells were isolated to ˜85% purity, as determined by flow cytometry (BD Biosciences, CA).
ADCC Assay: Purified NK cells (5×104) were seeded in 96-well U-bottom plates in 100 μL of RPMI-1640 medium without phenol (Invitrogen)+2% human AB+serum (Gemini Bio Products, CA) and treated with 10 ng/mL rhIL-2 and rituximab (5 μg/mL) plus different concentrations of test compounds at 0.01 to 10 μM for 48 hours. Various lymphoma cell lines (GCB-DLBCL: WSU-DLCL2 and Farage; Follicular lymphoma: DoHH2; ABC-DLBCL: Riva; Burkitt's lymphoma [BL]: Raji) were treated with 5 µg/mL rituximab for 30 minutes at 37° C. Unbound rituximab was washed off, target cells (5×103/100 μL/well) were added to the pretreated effector cells (NK cells) at a 10:1 ratio, and the two were co-incubated for 4 hours at 37° C. Control conditions consisted of NK cells plus tumor cells treated with (1) medium alone, (2) rituximab only, or (3) IL-2 alone. Using an aliquot of supernatant (50 μL), NK cell cytotoxicity against tumor cells was analyzed using a standard lactate dehydrogenease (LDH) release assay to measure ADCC (CytoTox 96 Non-Radioactive Cytoxicity Assay, Promega, WI). Spontaneous release by target cells alone was <15% of the maximum release, as determined with target cells lysed in 1% Triton X-100. The experimental release was corrected by subtraction of the spontaneous release of effector cells at the corresponding dilution. The percentage of specific lysis was calculated according to the formula: Percentage specific lysis=100×(experimental−effector spontaneous−target spontaneous)/(target maximum−target spontaneous).
NK cell-mediated specific lysis was calculated with the following formula: Percentage specific lysis=[(experimental release−spontaneous release)/(maximum release−spontaneous release)]×100. Results were analyzed using GraphPad Prism v5.0 software. Data are presented as the percentage cytotoxicity relative to DMSO-treated cells.

[11] = Sprague-Dawley, plasma, 10 mg/kg, 10 mpk po

EC50 [1]: ~0.29 nM | IC50 [5]: 40 nM | IC50 [6]: 52 nM | F ([7]; 10 mpk po): 52% | AUC ([7]; Sprague-Dawley, plasma, 2 mg/kg, 2 mpk iv): 890 ng·h/mL and 2 µM·h | clearance ([7]; Sprague-Dawley, plasma, 2 mg/kg, 2 mpk iv, read-out: CLp): 37 mL/min/kg | Vd ([7]; Sprague-Dawley, plasma, 2 mg/kg, 2 mpk iv, read-out: Vss): 2.9 L/kg | AUC [7, 11]: 2400 ng·h/mL and 5.2 µM·h | Cmax [7, 11]: 1500 ng/mL and 3.3 µM | F ([8]; 1 mpk po): 20% | AUC ([8]; plasma, 0.5 mg/kg, 0.5 mpk iv): 490 ng·h/mL and 1.1 µM·h | clearance ([8]; plasma, 0.5 mg/kg, 0.5 mpk iv, read-out: CLp): 8.4 mL/min/kg | Vd ([8]; plasma, 0.5 mg/kg, 0.5 mpk iv, read-out: Vss): 1.2 L/kg | AUC ([8]; plasma, 1 mg/kg, 1 mpk po): 390 ng·h/mL and 0.87 µM·h | Cmax ([8]; plasma, 1 mg/kg, 1 mpk po): 140 ng/mL and 310 nM
SMILES: O=C1CC[C@H](N2Cc3c(OCc4ccc(CN5CCOCC5)cc4)cccc3C2=O)C(=O)N1 [Compound I-S, (S)-3-(4-((4-(morpholinomethyl)benzyl)oxy)-1-oxoisoindolin-2-yl)piperidine-2,6-dione]
cell cycle effect [2]: induced G1 arrest | cell cycle effect [3]: induced G1 arrest | IC50 ([4]; Homo sapiens, Rec1, 72 h, 3 day, read-out: anti-proliferative IC50): 27 nM | combination effect, fractional product method ([4]; combined with Rituxan): additive manner | IC50 ([9]; read-out: IgG production IC50): 2.1 nM | IC50 ([9]; read-out: IgM production IC50): 0.35 nM

SMILES: O=C1CCC(N2Cc3c(OCc4ccc(CN5CCOCC5)cc4)cccc3C2=O)C(=O)N1 (racemic) [Compound I, 3-(4-((4-(morpholinomethyl)benzyl)oxy)-1-oxoisoindolin-2-yl)piperidine-2,6-dione]
concentration of peak ADCC activity ([10]; Farage cells): 1 µM | concentration of peak ADCC activity ([10]; Raji cells): 0.1 µM | rituximab-mediated ADCC, all cell lines ([10]; WSU-DLCL2, Farage, DoHH2, Riva, Raji): more active than compounds I-S and I-R in all the cell lines tested except in Riva cells | concentration of peak ADCC activity ([10]; WSU-DLCL2 cells): 0.1 µM | concentration of peak ADCC activity ([10]; other cell lines (than WSU-DLCL2 and Raji)): 1 µM
